From patent US9115127B2 (AMGEN INC., priority 2010, dated 2015)

Target: T1, wild-type human ALK (cytoplasmic domain, amino acids 1058-1620, N-terminal GST fusion) (Homo sapiens, UniProt Q9UM73)
T1 construct: The cytoplasmic domain (amino acids 1058-1620) of wild-type human ALK; GST (N); made in house; host or cells: SF9 insect cells
Assay: ALK Inhibition in Enzyme Assay (Lance TR-FRET kinase assay)
Format: biochemical
Description: ALK Inhibition in Enzyme Assay
Kinase activity of the purified protein was assessed using a Lance® TR-FRET assay. […] The reaction was allowed to proceed for 90 minutes at room temperature and was then terminated with 20 mM EDTA in 50 mM Tris (pH 7.5), 100 mM NaCl, 0.05% BSA, and 0.1% Tween-20. Phosphorylation of the peptide substrate was detected using the Lance® detection reagents streptavidin-allophycocyanin (SA-APC) and Eu-W1024 anti-phosphotyrosine antibody (PT66) from Perkin Elmer Life Sciences (Waltham, Mass.). The plates were read on a RUBY star plate reader (BMG LABTECH, Cary, N.C.) with an excitation wavelength of 320 nm.

T1 sequence (Q9UM73 1058-1620): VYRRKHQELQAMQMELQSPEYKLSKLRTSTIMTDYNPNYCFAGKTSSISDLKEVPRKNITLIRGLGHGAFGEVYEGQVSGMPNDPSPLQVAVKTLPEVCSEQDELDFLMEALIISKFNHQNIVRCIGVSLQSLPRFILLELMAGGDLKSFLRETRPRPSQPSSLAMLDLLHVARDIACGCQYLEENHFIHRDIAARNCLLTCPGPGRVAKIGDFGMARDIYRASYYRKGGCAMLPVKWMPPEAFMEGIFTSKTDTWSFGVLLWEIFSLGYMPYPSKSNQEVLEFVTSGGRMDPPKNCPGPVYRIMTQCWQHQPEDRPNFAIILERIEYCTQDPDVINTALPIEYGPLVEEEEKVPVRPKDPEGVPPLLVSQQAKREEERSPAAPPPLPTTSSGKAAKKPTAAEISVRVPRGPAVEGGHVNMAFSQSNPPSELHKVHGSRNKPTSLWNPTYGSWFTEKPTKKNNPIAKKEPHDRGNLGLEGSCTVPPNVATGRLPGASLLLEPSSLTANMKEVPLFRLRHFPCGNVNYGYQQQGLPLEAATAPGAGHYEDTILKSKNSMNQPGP

Row | SMILES | IC50
1 | CCS(=O)(=O)N1CCC(n2/c(=N/C(=O)c3ccccc3)[nH]c3cnc(OCCN4CCCCC4)cc32)CC1 [Example 66, (E)-N-(1-(1-(Ethylsulfonyl)piperidin-4-yl)-6-(2-(piperidin-1-yl)ethoxy)-1H-imidazo[4,5-c]pyridin-2(3H)-ylidene)benzamide] | 100 to 1000 nM
2 | CNS(=O)(=O)N1CCC(n2/c(=N/C(=O)c3ccccc3)[nH]c3cnc(OCCN4CCCCC4)cc32)CC1 [Example 67, (E)-N-(1-(1-(N-Methylsulfamoyl)piperidin-4-yl)-6-(2-(piperidin-1-yl)ethoxy)-1H-imidazo[4,5-c]pyridin-2(3H)-ylidene)benzamide] | 100 to 1000 nM
3 | CC(C)S(=O)(=O)N1CCC(n2/c(=N/C(=O)c3ccccc3)[nH]c3cnc(OCCN4CCCCC4)cc32)CC1 [Example 69, (E)-N-(1-(1-(Isopropylsulfonyl)piperidin-4-yl)-6-(2-(piperidin-1-yl)ethoxy)-1H-imidazo[4,5-c]pyridin-2(3H)-ylidene)benzamide] | 100 to 1000 nM
4 | CC(=O)[C@H]1CC[C@@H](n2/c(=N/C(=O)c3cccc(F)c3)[nH]c3ccc(CN4CCC(C(C)(C)O)CC4)cc32)CC1 [Example 71, (E)-N-(1-(cis-4-Acetylcyclohexyl)-6-((4-(2-hydroxypropan-2-yl)piperidin-1-yl)methyl)-1H-benzo[d]imidazol-2(3H)-ylidene)-3-fluorobenzamide] | 100 to 1000 nM
5 | CC(C)NC(C)[C@H]1CC[C@@H](n2/c(=N/C(=O)c3cccc(F)c3)[nH]c3ccc(CN4CCC(C(C)(C)O)CC4)cc32)CC1 (stereo partly drawn) [Example 72, (E)-3-Fluoro-N-(6-((4-(2-hydroxypropan-2-yl)piperidin-1-yl)methyl)-1-(cis-4-(1-(isopropylamino)ethyl)cyclohexyl)-1H-benzo[d]imidazol-2(3H)-ylidene)benzamide] | < 50 nM
6 | Cc1n[nH]c([C@H]2CC[C@@H](n3/c(=N/C(=O)c4cccc(F)c4)[nH]c4ccc(CO)cc43)CC2)n1 [Example 73, (E)-3-Fluoro-N-(6-(hydroxymethyl)-1-(cis-4-(3-methyl-1H-1,2,4-triazol-5-yl)cyclohexyl)-1H-benzo[d]imidazol-2(3H)-ylidene)benzamide] | 100 to 1000 nM
7 | CNCC(=O)N1CCC(n2/c(=N/C(=O)c3ccccc3)[nH]c3cnc(OCCN4CCCCC4)cc32)CC1 [Example 75, (E)-N-(1-(1-(2-(Methylamino)acetyl)piperidin-4-yl)-6-(2-(piperidin-1-yl)ethoxy)-1H-imidazo[4,5-c]pyridin-2(3H)-ylidene)benzamide] | 100 to 1000 nM
8 | CN(CC(=O)N1CCC(n2/c(=N/C(=O)c3ccccc3)[nH]c3cnc(OCCN4CCCCC4)cc32)CC1)C(=O)OC(C)(C)C [Example 76, (E)-tert-Butyl 2-(4-(2-(benzoylimino)-6-(2-(piperidin-1-yl)ethoxy)-2,3-dihydro-1H-imidazo[4,5-c]pyridin-1-yl)piperidin-1-yl)-2-oxoethyl(methyl)carbamate] | 1000 to 5000 nM
9 | CCOC(=O)[C@H]1CC[C@@H](n2/c(=N/C(=O)c3cccc(F)c3)[nH]c3cnc(OCCO)cc32)CC1 [Example 77, cis-Ethyl 4-((E)-2-(3-fluorobenzoylimino)-6-(2-hydroxyethoxy)-2,3-dihydro-1H-imidazo[4,5-c]pyridin-1-yl)cyclohexanecarboxylate] | < 50 nM
10 | CC(C)(O)C1CCN(CCOc2cc3c(cn2)[nH]/c(=N\C(=O)c2cccc(F)c2)n3[C@H]2CC[C@@H](C(=O)O)CC2)CC1 [Example 79, cis-4-((E)-2-(3-Fluorobenzoylimino)-6-(2-(4-(2-hydroxypropan-2-yl)piperidin-1-yl)ethoxy)-2,3-dihydro-1H-imidazo[4,5-c]pyridin-1-yl)cyclohexanecarboxylic acid] | 1000 to 5000 nM
11 | COC(=O)[C@H]1CC[C@@H](n2/c(=N/C(=O)c3ccc(F)cc3)[nH]c3ccc(CN4CCOCC4)cc32)CC1 [Example 85, cis-Methyl 4-((E)-2-(4-fluorobenzoylimino)-6-(morpholinomethyl)-2,3-dihydro-1H-benzo[d]imidazol-1-yl)cyclohexanecarboxylate] | < 50 nM
12 | CC(C)NC(=O)[C@H]1CC[C@@H](n2c(N)nc3cnc(OCCN4CCCCC4)cc32)CC1 [Example 86, cis-4-(2-Amino-6-(2-(piperidin-1-yl)ethoxy)-1H-imidazo[4,5-c]pyridin-1-yl)-N-isopropylcyclohexanecarboxamide] | 5000 to 10000 nM
13 | CC(C)NC(=O)[C@H]1CC[C@@H](n2/c(=N/C(=O)c3ccc(C#N)cc3)[nH]c3cnc(OCCN4CCCCC4)cc32)CC1 [Example 89, (E)-4-Cyano-N-(1-(cis-4-(isopropylcarbamoyl)cyclohexyl)-6-(2-(piperidin-1-yl)ethoxy)-1H-imidazo[4,5-c]pyridin-2(3H)-ylidene)benzamide] | < 50 nM
14 | CC(C)NC(=O)[C@H]1CC[C@@H](n2/c(=N/C(=O)c3cccc(C#N)c3)[nH]c3cnc(OCCN4CCCCC4)cc32)CC1 [Example 91, (E)-3-Cyano-N-(1-(cis-4-(isopropylcarbamoyl)cyclohexyl)-6-(2-(piperidin-1-yl)ethoxy)-1H-imidazo[4,5-c]pyridin-2(3H)-ylidene)benzamide] | < 50 nM

Second part, the compound after the results:

Row | IC50 | SMILES
15 | 1000 to 5000 nM | O=C(/N=c1\[nH]c2cnc(OCCN3CCCCC3)cc2n1C1CCNCC1)c1ccccc1 [Example 65, (E)-N-(6-(2-(Piperidin-1-yl)ethoxy)-1-(piperidin-4-yl)-1H-imidazo[4,5-c]pyridin-2(3H)-ylidene)benzamide]
16 | 5000 to 10000 nM | CC(C)CN1CCC(n2/c(=N/C(=O)c3ccccc3)[nH]c3cnc(OCCN4CCCCC4)cc32)CC1 [Example 68, (E)-N-(1-(1-Isobutylpiperidin-4-yl)-6-(2-(piperidin-1-yl)ethoxy)-1H-imidazo[4,5-c]pyridin-2(3H)-ylidene)benzamide]
17 | < 50 nM | Cc1n[nH]c([C@H]2CC[C@@H](n3/c(=N/C(=O)c4cccc(F)c4)[nH]c4ccc(CN5CCC(C(C)(C)O)CC5)cc43)CC2)n1 [Example 74, (E)-3-Fluoro-N-(6-((4-(2-hydroxypropan-2-yl)piperidin-1-yl)methyl)-1-(cis-4-(3-methyl-1H-1,2,4-triazol-5-yl)cyclohexyl)-1H-benzo[d]imidazol-2(3H)-ylidene)benzamide]
18 | < 50 nM | CCOC(=O)[C@H]1CC[C@@H](n2/c(=N/C(=O)c3cccc(F)c3)[nH]c3cnc(OCCN4CCC(C(C)(C)O)CC4)cc32)CC1 [Example 78, cis-Ethyl 4-((E)-2-(3-fluorobenzoylimino)-6-(2-(4-(2-hydroxypropan-2-yl)piperidin-1-yl)ethoxy)-2,3-dihydro-1H-imidazo[4,5-c]pyridin-1-yl)cyclohexanecarboxylate]
19 | < 50 nM | CC(C)(O)C1CCN(CCOc2cc3c(cn2)[nH]/c(=N\C(=O)c2cccc(F)c2)n3[C@H]2CC[C@@H](C(=O)N3CC(F)(F)C3)CC2)CC1 [Example 80, (E)-N-(1-(cis-4-(3,3-Difluoroazetidine-1-carbonyl)cyclohexyl)-6-(2-(4-(2-hydroxypropan-2-yl)piperidin-1-yl)ethoxy)-1H-imidazo[4,5-c]pyridin-2(3H)-ylidene)-3-fluorobenzamide]
20 | 100 to 1000 nM | CC(C)(O)C1CCN(CCOc2cc3c(cn2)[nH]/c(=N\C(=O)c2cccc(F)c2)n3[C@H]2CC[C@@H](C(=O)N3CC(O)C3)CC2)CC1 [Example 81, (E)-3-Fluoro-N-(1-(cis-4-(3-hydroxyazetidine-1-carbonyl)cyclohexyl)-6-(2-(4-(2-hydroxypropan-2-yl)piperidin-1-yl)ethoxy)-1H-imidazo[4,5-c]pyridin-2(3H)-ylidene)benzamide]
21 | 50 to 100 nM | CC(C)NC(=O)[C@H]1CC[C@@H](n2/c(=N/C(=O)c3ccc4ccsc4c3)[nH]c3cnc(OCCN4CCCCC4)cc32)CC1 [Example 87, (E)-N-(1-(cis-4-(Isopropylcarbamoyl)cyclohexyl)-6-(2-(piperidin-1-yl)ethoxy)-1H-imidazo[4,5-c]pyridin-2(3H)-ylidene)benzo[b]thiophene-6-carboxamide]
22 | 50 to 100 nM | CC(C)NC(=O)[C@H]1CC[C@@H](n2/c(=N/C(=O)c3cncs3)[nH]c3cnc(OCCN4CCCCC4)cc32)CC1 [Example 88, (E)-N-(1-(cis-4-(Isopropylcarbamoyl)cyclohexyl)-6-(2-(piperidin-1-yl)ethoxy)-1H-imidazo[4,5-c]pyridin-2(3H)-ylidene)thiazole-5-carboxamide]
23 | < 50 nM | CC(C)NC(=O)[C@H]1CC[C@@H](n2/c(=N/C(=O)c3ccncc3)[nH]c3cnc(OCCN4CCCCC4)cc32)CC1 [Example 90, (E)-N-(1-(cis-4-(Isopropylcarbamoyl)cyclohexyl)-6-(2-(piperidin-1-yl)ethoxy)-1H-imidazo[4,5-c]pyridin-2(3H)-ylidene)isonicotinamide]
24 | < 50 nM | CC(C)NC(=O)[C@H]1CC[C@@H](n2/c(=N/C(=O)c3cccc(C(F)(F)F)c3)[nH]c3cnc(OCCN4CCCCC4)cc32)CC1 [Example 92, (E)-N-(1-(cis-4-(Isopropylcarbamoyl)cyclohexyl)-6-(2-(piperidin-1-yl)ethoxy)-1H-imidazo[4,5-c]pyridin-2(3H)-ylidene)-3-(trifluoromethyl)benzamide]
25 | 1000 to 5000 nM | CC(C)NC(=O)[C@H]1CC[C@@H](n2/c(=N/C(=O)c3cccc(S(C)(=O)=O)c3)[nH]c3cnc(OCCN4CCCCC4)cc32)CC1 [Example 93, (E)-N-(1-(cis-4-(Isopropylcarbamoyl)cyclohexyl)-6-(2-(piperidin-1-yl)ethoxy)-1H-imidazo[4,5-c]pyridin-2(3H)-ylidene)-3-(methylsulfonyl)benzamide]
26 | 50 to 100 nM | CC(C)NC(=O)[C@H]1CC[C@@H](n2/c(=N/C(=O)c3ccc(F)cc3F)[nH]c3cnc(OCCN4CCCCC4)cc32)CC1 [Example 94, (E)-2,4-Difluoro-N-(1-(cis-4-(isopropylcarbamoyl)cyclohexyl)-6-(2-(piperidin-1-yl)ethoxy)-1H-imidazo[4,5-c]pyridin-2(3H)-ylidene)benzamide]
